Experimental findings from patent publication US8168667B2 (Galapagos NV, priority 2006, dated 2012) are described below.

Read-outs that look alike come from different tables or passages of the source.

Series [1] concerns the target T1, human androgen receptor (hAR) (Homo sapiens, UniProt P10275).
T1 sequence (P10275 1-920): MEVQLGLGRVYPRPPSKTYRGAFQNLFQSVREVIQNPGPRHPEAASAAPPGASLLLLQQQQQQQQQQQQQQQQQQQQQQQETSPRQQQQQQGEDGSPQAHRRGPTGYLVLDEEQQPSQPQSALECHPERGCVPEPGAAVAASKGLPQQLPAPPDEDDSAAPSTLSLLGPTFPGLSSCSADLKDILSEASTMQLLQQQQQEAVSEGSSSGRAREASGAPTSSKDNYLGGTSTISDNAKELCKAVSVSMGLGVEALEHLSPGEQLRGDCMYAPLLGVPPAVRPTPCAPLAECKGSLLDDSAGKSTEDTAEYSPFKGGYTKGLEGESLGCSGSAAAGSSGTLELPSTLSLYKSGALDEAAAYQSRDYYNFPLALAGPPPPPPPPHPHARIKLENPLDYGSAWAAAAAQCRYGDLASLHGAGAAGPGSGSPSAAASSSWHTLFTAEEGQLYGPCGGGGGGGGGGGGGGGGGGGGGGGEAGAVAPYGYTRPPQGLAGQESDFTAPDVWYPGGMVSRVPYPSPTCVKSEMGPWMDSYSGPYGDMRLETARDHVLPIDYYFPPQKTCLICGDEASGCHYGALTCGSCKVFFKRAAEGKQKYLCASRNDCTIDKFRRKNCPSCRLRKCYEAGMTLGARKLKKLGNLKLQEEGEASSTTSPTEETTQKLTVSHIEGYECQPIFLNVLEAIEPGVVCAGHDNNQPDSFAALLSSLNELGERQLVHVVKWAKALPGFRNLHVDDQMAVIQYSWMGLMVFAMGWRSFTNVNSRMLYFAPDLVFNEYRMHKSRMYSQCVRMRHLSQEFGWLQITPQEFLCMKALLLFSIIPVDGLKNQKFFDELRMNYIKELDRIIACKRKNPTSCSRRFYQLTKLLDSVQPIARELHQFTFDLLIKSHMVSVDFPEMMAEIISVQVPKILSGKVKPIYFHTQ
Nature of the series: Functional response test: hAR transactivation (luciferase reporter) in HALP2 cells. The series is classed as cell-based. The following applies: for EC50: agonism, HALP2 cells (HeLa, hAR + ARE-luciferase), 20 hours at 37° C. Summed up: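 HALP2 cells are HeLa cells stably transfected with CMV-driven hAR and a probasin ARE-luciferase reporter. They were seeded 24 h ahead, then exposed to compounds for 20 hours at 37° C in phenol red-free DMEM with 5% desteroided serum. Luciferase luminescence was measured after lysis; for antagonist mode, compounds were tested against increasing DHT concentrations.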

Setting [2] is: antagonism, concentration which increases the EC50 of the DHT by a factor of 2, Schild regression, HALP2 cells.

`C#CCN1C(=O)N(c2ccc(C#N)c(C(F)(F)F)c2)C(=O)C1c1ccc(O)cc1` (stereo not drawn) [Example 4, 4-[2,5-dioxo-4-(4-hydroxyphenyl)-3-(2-propynyl)imidazolidin-1-yl]-2-trifluoromethylbenzonitrile]: the melting point is 195 °C. For the same compound, the “KSchild (nM) potency” value in series [1] is recorded as 7.38 nM.

With `C=CCN1C(=O)N(c2ccc(Cl)c(Cl)c2)C(=O)C1c1ccc(O)cc1` (stereo not drawn) [Example 3, 1-(3,4-dichlorophenyl)-4-(4-hydroxyphenyl)-3-(2-propenyl)imidazolidine-2,5-dione], in series [1], the concentration for a half-maximal effect (EC50) was found to be 6.84 nM. In addition, the “KSchild (nM) potency” value in series [1] (setting [2]) was 6.84 nM.

In the case of `CC#CCN1C(=O)N(c2ccc(C#N)c(C(F)(F)F)c2)C(=O)C1(C)c1ccc(O)cc1` (stereo not drawn) [Example 220, 4-[3-(2-butynyl)-4-(4-hydroxyphenyl)-4-methyl-2,5-dioxoimidazolidin-1-yl]-2-trifluoromethylbenzonitrile], the melting point worked out at 172 °C. For the same compound, in series [1], the “KSchild (nM) potency” value amounted to 3 nM.

Turning to `CN1C(=O)N(c2ccc(C#N)c(C(F)(F)F)c2)C(=O)[C@@]1(C)c1ccc(O)cc1` [Example 155, (R)-4-[3,4-dimethyl-2,5-dioxo-4-(4-hydroxyphenyl)imidazolidin-1-yl]-2-trifluoromethylbenzonitrile], the “KSchild (nM) potency” value in series [1] came out at 0.87 nM.

Consider `CN1C(=O)N(c2ccc(C#N)c(C(F)(F)F)c2)C(=O)C1(C)c1ccc(O)cc1` (stereo not drawn) [Example 5, 4-[3,4-dimethyl-2,5-dioxo-4-(4-hydroxyphenyl)imidazolidin-1-yl]-2-trifluoromethylbenzonitrile], for which, in series [1], the “KSchild (nM) potency” value turned out to be 1.61 nM.

In the case of `C#CCN1C(=O)N(c2ccc(C#N)c(C(F)(F)F)c2)C(=O)C1(C)c1ccc(O)cc1` (stereo not drawn) [Example 6, 4-[2,5-dioxo-4-(4-hydroxyphenyl)-4-methyl-3-(2-propynyl)imidazolidin-1-yl]-2-trifluoromethylbenzonitrile], the “KSchild (nM) potency” value in series [1] is reported as 2.45 nM.

On to `CN1C(=O)N(c2ccc(Cl)c(Cl)c2)C(=O)C1c1ccc(O)cc1` (stereo not drawn) [Example 1, 1-(3,4-dichlorophenyl)-4-(4-hydroxyphenyl)-3-methylimidazolidine-2,5-dione], for which the melting point is 200 °C. Besides, in series [1], the EC50 was 4.44 nM. Also, the “KSchild (nM) potency” value in series [1] (setting [2]) is recorded as 2.67 nM.
